# Assay results published in paper PMC11352108, “Anti-Biofilm and Anti-Inflammatory Properties of the Truncated Analogs of the Scorpion Venom-Derived Peptide IsCT against Pseudomonas aeruginosa” (Antibiotics, 2024).
# Values joined by “and” are separate entries in the source; they are usually repeats but may differ in a detail not shown here. Equal entries are not always repeated. Where no end group is shown, it is not given here.
# Key:
# sheep red blood cells = assay: Hemolytic assay; type: cell-based
# Description: A hemolytic assay was carried out according to the previously described method using commercially sourced sheep red blood cells (Professional Nanomed Company Limited, Bangkok, Thailand). One hundred microliters of a 2% sheep red blood cell suspension prepared in phosphate-buffered saline (PBS) pH 7.4. was incubated for 1 h at 37 °C with 100 μL of the studied peptides (final concentration of 150 µM). After centrifugation at 1000× g for 5 min, 100 μL of supernatant was transferred to new 96-well plates, and the release of hemoglobin was monitored, measuring an optical density (OD) at 405 nm using a BioTek Synergy HT microplate reader. Red blood cells treated with PBS pH 7.4 were used as a negative control, while those treated with 1% Triton X-100 were used as a positive control. The percent hemolysis was calculated as follows:(1) % Hemolysis=OD405 nm of the test peptide−OD405 nm of negative control/OD405 nm of positive control−OD405 nm of negative control × 100
# [1] = test system: P. aeruginosa PAO1 biofilms; assay: Biofilm susceptibility assay (crystal violet); type: cell-based, Pseudomonas aeruginosa; details: 150 μM, 24 h, 37 °C, 10^6 CFU/mL, OD 550 nm, compared with untreated control
# Description: The effect of the truncated IsCT analogs on biofilms of P. aeruginosa was assessed using a method that was described previously. Briefly, 100 μL of the test peptides (final concentration, 150 μM) was added to each well of a 96-well microtiter plate (Nunc^TM, Roskilde, Denmark). Then, an aliquot of P. aeruginosa PAO1 culture was added to each well to obtain a final concentration of 10^6 CFU/mL. The bacterial culture alone was included as an untreated control. Following a 24-h incubation at 37 °C, unattached planktonic cells were discarded, and the wells were carefully washed twice with PBS with a pH of 7.4. Thereafter, biofilm biomasses were quantified by 0.1% crystal violet staining. After excess stains were discarded, the wells were washed with PBS pH 7.4 and left to air dry for 2 h at 37 °C. The biofilm biomass was subsequently dissolved by the addition of 30% acetic acid, and the plates were spectrophotometrically read at 550 nm using a BioTek Synergy HT microplate reader.
# P. aeruginosa PAO1 = assay: Growth curve assay; type: cell-based, Pseudomonas aeruginosa; details: 150 μM; for OD600nm, Mean / OD600nm, Exp.1 / OD600nm, Exp.2: 37 °C, 150 rpm; for OD600nm, Mean: mean of 2 experiments; for OD600nm, Exp.1: replicate Exp.1; for OD600nm, Exp.2: replicate Exp.2
# Description: The effect of the IsCT-Δ6-8 peptide on the growth of P. aeruginosa was assessed as previously described. A culture of P. aeruginosa PAO1 was grown at a concentration of 10^6 CFU/ mL in the presence or absence of the IsCT-Δ6-8 peptide (final concentration, 150 µM) at 37 °C, with agitation at 150 rpm. The OD600 nm was then recorded at 0, 6, 12, 18, and 24 h.
# [2] = test system: pyocyanin production by P. aeruginosa PAO1; assay: Pyocyanin assay (chloroform extraction); type: cell-based, Pseudomonas aeruginosa; details: 24 h, 37 °C; for Pyocyanin production (%control), Exp.1: replicate Exp.1; for Pyocyanin production (%control), Mean: mean of Exp.1-3; for Pyocyanin production (%control), Exp.2: replicate Exp.2; for Pyocyanin production (%control), Exp.3: replicate Exp.3
# Description: The effect of IsCT-Δ6-8 peptide on the production of pyocyanin pigments produced by P. aeruginosa PAO1 was assessed using the protocol described previously. In brief, 750 μL of P. aeruginosa culture (10^8 CFU/mL, final concentration) and 250 μL of the test peptide prepared in LB broth (final concentrations ranged from 37.5 μM to 150 μM) were incubated at 37 °C for 24 h with agitation (150 rpm). A P. aeruginosa culture without the IsCT-Δ6-8 peptide served as an untreated control. Thereafter, supernatants were collected by centrifugation at 3900× g for 10 min, and pyocyanin pigment was extracted twice using chloroform/0.2 N HCl. Centrifugation was performed at 3900× g for 10 min before the pink-colored solution was collected, and the absorbance was measured at […].
# [3] = test system: NO production in P. aeruginosa LPS-stimulated RAW 264.7 macrophages; assay: Nitric oxide measurement (Griess reagent); type: cell-based, murine; details: 48 h; for Nitrite (µM), Exp.1: replicate Exp.1; for Nitrite (µM), Mean: mean of 2 experiments, LPS alone 24.5278; for Nitrite (µM), Exp.2: replicate Exp.2
# Description: (§1) RAW 264.7 cells (3.5 × 10^5) were stimulated with P. aeruginosa lipopolysaccharide (100 ng/mL; Sigma, St. Louis, MO, USA) in the presence or absence of the IsCT-Δ6-8 peptide (37.5–150 μM, final concentration). After incubation at 37 °C under 5% CO2 for 48 h, supernatants were collected. The levels of nitrite (a stable breakdown of NO) were then determined using the Griess reagent system (Promega, Madison, Wisconsin, USA). The IL-6 levels in culture supernatant were quantified with the BioLegend ELISA MAXTM Deluxe Set according to the manufacturer’s protocols.
# [4] = test system: IL-6 production in P. aeruginosa LPS-stimulated RAW 264.7 macrophages; assay: IL-6 measurement (sandwich ELISA); type: cell-based, murine; details: 48 h; for IL-6 (pg/mL), Exp.1: replicate Exp.1; for IL-6 (pg/mL), Mean: mean of 2 experiments, LPS alone 4081.029; for IL-6 (pg/mL), Exp.2: replicate Exp.2
# Description: as §1
# [5] = peptide 37.5 µM with LPS 100 ng/mL, 37 °C
# [6] = peptide 37.5 µM with LPS 100 ng/mL
# [7] = peptide 75 µM with LPS 100 ng/mL
# [8] = peptide 150 µM with LPS 100 ng/mL
sequence,measurement,setting,value
ILGKIIKSLF [IsCT-Δ6-8],Hemolytic activity (in words),"sheep red blood cells; sheep erythrocytes, concentrations as high as 150 μM",decreased hemolytic activity
same,"% Hemolysis, Exp.1","sheep red blood cells; sheep red blood cells, 1 h, 37 °C, peptides 150 μM (Triton X-100 1%), replicate Exp.1",1.56%
same,"% Hemolysis, Exp.2","sheep red blood cells; sheep red blood cells, 1 h, 37 °C, peptides 150 μM (Triton X-100 1%), replicate Exp.2",0.72%
same,"% Hemolysis, Exp.3","sheep red blood cells; sheep red blood cells, 1 h, 37 °C, peptides 150 μM (Triton X-100 1%), replicate Exp.3",3.45%
same,Decrease in P. aeruginosa biofilm biomass,[1],33.12% and 33%
same,"OD600nm, Mean",P. aeruginosa PAO1; 0 h,0.0000
same,"OD600nm, Exp.1",P. aeruginosa PAO1; 0 h,0.0000
same,"OD600nm, Exp.2",P. aeruginosa PAO1; 0 h,0.0000
same,"OD600nm, Mean","P. aeruginosa PAO1; 6 h, untreated control 0.3954",0.2100
same,"OD600nm, Exp.1","P. aeruginosa PAO1; 6 h, untreated control 0.3955",0.2055
same,"OD600nm, Exp.2","P. aeruginosa PAO1; 6 h, untreated control 0.3953",0.2145
same,"OD600nm, Mean","P. aeruginosa PAO1; 12 h, untreated control 0.5425",0.4723
same,"OD600nm, Exp.1","P. aeruginosa PAO1; 12 h, untreated control 0.5353",0.4765
same,"OD600nm, Exp.2","P. aeruginosa PAO1; 12 h, untreated control 0.5498",0.4680
same,"OD600nm, Mean","P. aeruginosa PAO1; 18 h, untreated control 0.6067",0.5898
same,"OD600nm, Exp.1","P. aeruginosa PAO1; 18 h, untreated control 0.6213",0.5830
same,"OD600nm, Exp.2","P. aeruginosa PAO1; 18 h, untreated control 0.5922",0.5965
same,"OD600nm, Mean","P. aeruginosa PAO1; 24 h, untreated control 0.6209",0.6033
same,"OD600nm, Exp.1","P. aeruginosa PAO1; 24 h, untreated control 0.6330",0.5450
same,"OD600nm, Exp.2","P. aeruginosa PAO1; 24 h, untreated control 0.6088",0.6615
same,Growth of P. aeruginosa at early time points (in words),"P. aeruginosa PAO1; 6 h and 12 h, compared to untreated control culture",slow growth rate
same,Growth of P. aeruginosa after prolonged exposure (in words),"P. aeruginosa PAO1; 18 h and 24 h, versus untreated control (p > 0.05)",comparable to that of the untreated control culture
same,"Pyocyanin production (%control), Exp.1","[2]; 37.5 µM, 10^8 CFU/mL, LB broth, absorbance 380 nm",124.961 %control
same,"Pyocyanin production (%control), Mean",[2]; 37.5 µM,82.972 %control
same,"Pyocyanin production (%control), Exp.2",[2]; 37.5 µM,54.723 %control
same,"Pyocyanin production (%control), Exp.3",[2]; 37.5 µM,69.231 %control
same,"Pyocyanin production (%control), Mean",[2]; 75 µM,69.677 %control
same,"Pyocyanin production (%control), Exp.1",[2]; 75 µM,120.493 %control
same,"Pyocyanin production (%control), Exp.2",[2]; 75 µM,42.094 %control
same,"Pyocyanin production (%control), Exp.3",[2]; 75 µM,46.444 %control
same,"Pyocyanin production (%control), Mean",[2]; 150 µM,48.905 %control
same,"Pyocyanin production (%control), Exp.1",[2]; 150 µM,76.348 %control
same,"Pyocyanin production (%control), Exp.2",[2]; 150 µM,36.550 %control
same,"Pyocyanin production (%control), Exp.3",[2]; 150 µM,33.817 %control
same,Effect on LPS-induced nitrite increase (in words),"[3]; 37.5–150 μM, in particular at 150 μM (p < 0.05 vs LPS-stimulated)",reduced
same,"Nitrite (µM), Exp.1",[3]; [5],24.3889 µM
same,"Nitrite (µM), Mean",[3]; [6],24.2500 µM
same,"Nitrite (µM), Exp.2",[3]; [6],24.1111 µM
same,"Nitrite (µM), Mean",[3]; [7],23.5556 µM
same,"Nitrite (µM), Exp.1",[3]; [7],23.8889 µM
same,"Nitrite (µM), Exp.2",[3]; [7],23.2222 µM
same,"Nitrite (µM), Mean",[3]; [8],21.0833 µM
same,"Nitrite (µM), Exp.1",[3]; [8],21.5000 µM
same,"Nitrite (µM), Exp.2",[3]; [8],20.6667 µM
same,Effect on LPS-induced IL-6 elevation (in words),"[4]; 37.5–150 μM, especially at 150 μM (p < 0.05 vs LPS-stimulated)",reduced
same,"IL-6 (pg/mL), Exp.1",[4]; [5],4036.912 pg/mL
same,"IL-6 (pg/mL), Mean",[4]; [6],3742.794 pg/mL
same,"IL-6 (pg/mL), Exp.2",[4]; [6],3448.676 pg/mL
same,"IL-6 (pg/mL), Mean",[4]; [7],3664.363 pg/mL
same,"IL-6 (pg/mL), Exp.1",[4]; [7],3953.578 pg/mL
same,"IL-6 (pg/mL), Exp.2",[4]; [7],3375.147 pg/mL
same,"IL-6 (pg/mL), Mean",[4]; [8],3304.069 pg/mL
same,"IL-6 (pg/mL), Exp.1",[4]; [8],3514.853 pg/mL
same,"IL-6 (pg/mL), Exp.2",[4]; [8],3093.284 pg/mL
